Legend:
Assay type in all cases: cell-based, Marinobacter aquaeoli VT8
AlkR protein [1] = assay: Alkane induction assay in E. coli JM109 carrying psb4K5-alkR-mRFP and rhamnose-inducible psb3C5-rha-weak alkL (or mock psb3C5-rha) plasmid; details: for expression of red fluorescent protein (mean fluorescence intensity) compared to no rhamnose addition: AlkL plasmid, 0.01% (w/v) rhamnose then 1% (v/v) n-tetradecane, 6 h after induction, FIG. 14
Experimental: (§1) E. coli JM109 carrying the psb4K5-alkR-mRFP plasmid was cultured overnight at 37° C. and 125-150 rpm in 3 mL of LB medium containing 50 μg/mL kanamycin. The overnight culture was diluted 1000-fold in LB medium in a 100 mL Hinton's flask and cultured at 37° C. To induce the expression of red fluorescent protein, 1% (v/v) of the various indicated hydrocarbons was added to the culture when the absorbance at 600 nm (O.D.600) reached about 0.6. At 0, 3, 6, 9, and 12 hours after the induction, 500 μL of the abovementioned bacterial culture was collected and centrifuged to obtain a cell pellet, which was washed twice and resuspended with phosphate buffer saline (PBS). Flow cytometry (BD FACSCanto II) was used to measure the mean fluorescence intensity of the cells and the distribution of cells with different fluorescence intensities (an excitation wavelength at 532 nm and an emission wavelength at 588 nm). For the E. coli JM109 that additionally carrying an expression vector of an alkane transporter, rhamnose was first added to the bacterial culture at an O.D.600 of about 0.6, and 1% (v/v) of the various indicated hydrocarbons was added three hours thereafter.
This characteristic might prevent the recombinant microorganism including the CYP153A operon from being induced by the medium-chain or long-chain alkanes or medium-chain or long-chain fatty acid methyl esters and producing the medium-chain or long-chain alkane terminal oxidation products. In order to promote the entry of medium-chain or long-chain alkanes into cells, the recombinant microorganism of the present invention may further express an alkane transporter. The AlkL protein of P. putida GPol is an exemplary alkane transporter used in this example to investigate the effects of alkane transporter expression on the uptake of medium-chain or long-chain alkanes or medium-chain or long-chain fatty acid methyl esters by the recombinant microorganisms. The AlkL protein is cytotoxic and its expression should be tightly regulated. […] At 6 hours after the induction, the mean fluorescence intensity of E. coli cells was measured by flow cytometry.
The AlkL protein was also tested for the ability to promote the uptake of various medium-chain or long-chain alkanes and methyl laurate by microbial cells. […] After 3 hours of incubation, 1% (v/v) n-octane, n-decane, n-dodecane, n-tetradecane, n-hexadecane, n-octadecane, or methyl laurate was added to induce the expression of red fluorescent protein, and the mean fluorescence intensity and fluorescence distribution of E. coli cells were measured by flow cytometry 6 hours after the induction. […]

AlkR protein [2] = assay: Alkane induction assay: mRFP reporter in E. coli JM109 carrying psb4K5-alkR-mRFP plasmid (flow cytometry)
Experimental: as §1
First, E. coli JM109 was transformed with the psb4K5-alkR-mRFP plasmid shown in FIG. 1, which was a reporter plasmid including the alkR gene, the gene encoding the red fluorescent protein, and the promoter thereof. […] At 0, 3, 6, 9, and 12 hours after the induction, the mean fluorescence intensity and fluorescence distribution of E. coli cells were measured by flow cytometry. […]
It was also studied whether the medium-chain or long-chain alkane terminal oxidation products would inhibit the activating effect of the AlkR protein on gene expression. In the alkane induction assay using n-dodecane as the inducer, 0.1% (v/v) or 1% (v/v) 1-dodecanol was additionally added to the E. coli culture, and the mean fluorescence intensity of the E. coli cells was measured at 6 and 12 hours after the induction, with the results shown in FIG. 10.

CYP153A operon [3] = assay: CYP153A expression in recombinant E. coli carrying pBBR1-CYPLR plasmid (SDS-PAGE, CO difference spectroscopy); details: 1% (v/v) methyl laurate, pBBR1-CYPLR vs pBBR1-alkR plasmid
Experimental: E. coli JM109 carrying the pBBR1-CYPLR plasmid or the pBBR1-alkR plasmid was overnight cultured at 37° C. and 125-150 rpm in 3 mL of LB medium containing 50 μg/mL kanamycin. The overnight culture was diluted 1000-fold in 3 mL of LB medium containing 50 μg/mL kanamycin and cultured at 37° C. 1% (v/v) methyl laurate was added to the culture at an O.D.600 of about 0.6 and a further incubation at 30° C. was carried out for 12 hours. The cell pellet obtained by centrifuging the abovementioned bacterial culture was washed and resuspended with PBS, and then subjected to protein expression analysis by sodium dodecyl sulfate polyacrylamide gel electrophoresis (SDS-PAGE) or carbon monoxide (CO) difference spectroscopy.
Samples of bacterial cells were mixed with sample buffer (50 mM Tris-HCl, pH 6.8, 100 mM dithiothreitol (DTT), 2% SDS, 0.1% bromophenol blue, 10% glycerol) and boiled for 10 minutes. […]
It was studied whether CYP153A expression in the recombinant E. coli carrying the reconstructed CYP153A operon from M. aquaeoli VT8 would be induced by medium-chain or long-chain fatty acid methyl esters. […] At 12 hours after the induction, the expression of CYP153A was analyzed by SDS-PAGE, and the protein molecular size and activity of the cytochrome P450 consisting of CYP153A, ferredoxin, and ferredoxin reductase were verified by carbon monoxide difference spectroscopy.

CYP153A operon [4] = assay: n-Octane-induced 1-octanol production by recombinant E. coli carrying pBBR1-CYPLR plasmid (gas chromatography); details: 1% (v/v) n-octane; 12 h after induction; pBBR1-CYPLR vs pBBR1-alkR plasmid; FIG. 13
Experimental: The medium-chain or long-chain alkane terminal oxidation product in the sample was analyzed qualitatively and quantitatively by gas chromatography. The analysis of alkanols and alkanediols was described as follows, with 1-octanol taken as example. 10 mg of 1,8-octanediol was added as an internal standard to 10 mL of the collected bacterial culture, and the mixture was extracted twice with double volumes of ethyl acetate. […] The obtained product was analyzed for composition by Varian CP-3800 gas chromatograph equipped with a DB-5 column and a flame ionization detector (FID). […] Alkanoic acids, alkanedioic acids, or alcohol acids were analyzed similarly as described above. In one embodiment of the present invention, 12-hydroxydodecanoic acid was analyzed using dodecanol as the internal standard.
It was studied whether the recombinant E. coli carrying the reconstructed CYP153A operon from M. aquaeoli VT8 would be induced to express the cytochrome P450 with oxidative activity and produce medium-chain or long-chain alkane terminal oxidation products in response to medium-chain or long-chain alkanes. […] At 12 hours after the induction, the production of 1-octanol in the bacterial culture was analyzed by gas chromatography.

**Q.** With `CCCCCCCCCCCCCC` [n-tetradecane] as the compound, how does the “expression of red fluorescent protein (mean fluorescence intensity) compared to no rhamnose addition” value (AlkR protein [1]) read?
**A.** The value was “induced significantly more expression of the red fluorescent protein”.

**Q.** What about the “expression of red fluorescent protein in E. coli cells expressing both AlkL and AlkR proteins vs control groups” value (AlkR protein [1]; psb3C5-rha-weak alkL plasmid, 0.01% rhamnose 3 h then 1% (v/v) alkane 6 h, FIG. 15) of the same compound?
**A.** Its value is “more effective in inducing the expression of red fluorescent protein”.

**Q.** How did the “inhibition of n-dodecane-induced red fluorescent protein expression” value (AlkR protein [2]; 0.1% or 1% (v/v) 1-dodecanol added with 1% n-dodecane inducer, 6 and 12 h, FIG. 10) turn out when `CCCCCCCCCCCCO` [1-dodecanol] was run?
**A.** Its value is “did not inhibit the expression of red fluorescent protein”.

**Q.** For `CCCCCCCCCCCC(=O)OC` [methyl laurate], which “expression of red fluorescent protein (mean fluorescence intensity) relative to control group” value (AlkR protein [2]; 1% (v/v) inducer, 0-12 h, recombinant E. coli JM109, vs untreated control, FIG. 8) is on record?
**A.** Its value is “induced the expression of red fluorescent protein”.

**Q.** What about the “expression of red fluorescent protein in control groups (mock vector) vs non-induced groups” value (AlkR protein [1]; psb3C5-rha mock vector, 0.01% rhamnose 3 h then 1% (v/v) inducer 6 h, FIG. 15) of the same compound?
**A.** Its value is “induce significantly more expression of the red fluorescent protein”.

**Q.** What about the “whole-cell carbon monoxide difference spectrum (400-500 nm)” value (CYP153A operon [3]; 12 h, FIGS. 12A-12B) of the same compound?
**A.** The value was “absorption peak at about 450 nm”.

**Q.** What about the “CYP153A expression by SDS-PAGE” value (CYP153A operon [3]; 12 h after induction, FIG. 11) of the same compound?
**A.** Its value is “expressed the CYP153A”.

**Q.** Which “expression of red fluorescent protein (mean fluorescence intensity) compared to no rhamnose addition” value (AlkR protein [1]) does the source give for `C[C@H](O)[C@H](O)[C@@H](O)[C@@H](O)C=O` [rhamnose, reference compound] here?
**A.** The value was “induced significantly more expression of the red fluorescent protein”.

**Q.** `CCCCCCCC` [n-octane] was tested. Which “number of E. coli cells induced to express red fluorescent protein (fluorescence distribution histograms)” value (AlkR protein [2]; 1% (v/v) alkane, 0 vs 6 h after induction, FIGS. 9A-9F) did it give?
**A.** Its value is “more E. coli cells were induced to express the red fluorescent protein”.

**Q.** What about the “induction of cytochrome P450 with oxidative activity (1-octanol production, gas chromatogram)” value (CYP153A operon [4]) of the same compound?
**A.** The value was “additional peak at the retention time of 1-octanol”.
